Source: patent publication US20030176470A1, “Topical composition containing at least one aryl oxime, and method for the preparation thereof” (priority 2000, published 2003)

Key:
[1] = solubility in different solvents; format: physicochemical; settings: in solvents such as isopropanol, acetone, chloroform, 2-phenylethanol and Triton-X100
Procedure: Numerous studies were conducted in order to obtain optimum compositions of the active agent in which an improvement of solubility and, a prevention of the formation of crystals is achieved. […] Therefore, the carriers must be non-toxic, non-carcinogenic and skin compatible and, furthermore, should be odour neutral. Moreover, these carriers, e.g. solvents or emulsifiers, should be compatible with the major part of the topical composition, i.e. an aqueous phase or an oil phase, and should not form a separate phase or lead to the precipitation of the active agent.

[2] = stability of ethanolic solutions of the active agent; format: physicochemical
Description: During investigations regarding the solubility of, in particular, 2-hydroxy-5-methyl-laurophenone oxime, solutions could be prepared which are stable after 4 days at room temperature under the exclusion of UV light. These solutions were ethanolic solutions of the active agent which included further components such as 0.8/1.0 and 2.0% PEG600 or PEG6000. The active agent was present in these solutions in an amount of 10 wt. %. […] These solutions can be incorporated into water in order to prepare topical formulations.

- solubility [1]: good solubility
- formation of crystals ([2]; ethanolic PEG solutions, amount of active agent increased above 10 wt. %): formation of crystals was observed
- stability of solution ([2]; ethanolic solutions with 0.8/1.0 and 2.0% PEG600 or PEG6000, active agent 10 wt. %, 4 days at room temperature under exclusion of UV light): stable
- formation of crystals ([2]; solution of the active agent incorporated into water at 10 to 20 wt. % of the formulation): in some cases the formation of crystals
Substance: 2-hydroxy-5-methyl-laurophenone oxime
